# Experimental data taken from patent US20230119479A1, “A HISTONE DEACETYLASE INHIBITOR HAVING A NITROGEN-CONTAINING AROMATIC HETEROCYCLYL GROUP” (SHIONOGI & CO., LTD., priority 2019, published 2023).
# Assays:
# [1] = tested on: HDACs other than HDAC2 (HDAC2 knockout K562 cells); assay: Evaluation of HDAC2 selectivity: H3K9 histone acetylation in HDAC2 knockout K562 cells (AlphaLISA); assay type: cell-based; settings: Homo sapiens, maximum concentration 83.3 μM, 100% = SAHA-treated group, read-out: maximum inhibition rate (H3K9 histone acetylation);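 note: 0% inhibition equals DMSO-treated group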
# Protocol: Test Example 3: Evaluation of HDAC2 Selectivity
# K562 cells were cultured in RPMI1640 medium (SIGMA, R8758) containing 10% FBS (Hyclone, SH30070.03) and 1% penicillin streptomycin (Nacalai Tesque, 26252-94). CompoZr (registered trademark) Zinc Finger Nuclease (Merck) targeting HDAC2 sequences was transfected into K562 cells by electroporation using Nucleofector (Lonza). The cells after transfection were subjected to limiting dilution, and DNA sequencing was performed on the cell clones in which mutations were detected by the PCR method. Cell clones lacking a base number that was not a multiple of 3 in both alleles were identified, and a single-cell cloning was performed on the cell clones to produce HDAC2 knockout K562 cells. It was confirmed that the expression of HDAC2 was not detected by Western blotting in the prepared cells.
# By evaluating the H3K9 histone acetylation-enhancing activity of the test compound using HDAC2 knockout K562 cells, the inhibitory activity against HDACs other than HDAC2 was evaluated.
# HDAC2 knockout K562 cells stored in liquid nitrogen were thawed and cultured in RPMI1640 medium (Nacalai Tesque, 30264-85) for 2 to 4 days. Using Echo555 (Beckman Coulter), the test compound was dispensed to the assay plate (Corning, 4513) at 37.5 nL/well, and then HDAC2 knockout K562 cells were seeded to 125 cells/4.5 μL/well, and stirred. At this time, the test compound was treated at 8 points (n=2) in the 3-fold dilution series from the maximum concentration of 83.3 μM. After culturing at 37° C. and 5% CO2 overnight, 1.5 μL/well of Lysis buffer (PerkinElmer, AL009F1) was added, and after incubating at room temperature for 15 minutes, 3 μL/well of Extraction buffer (PerkinElmer, AL009F2) was added and the mixture was incubated for 10 minutes at room temperature. Then, 5× antibody solution (prepared by diluting anti-H3K9 Acceptor beads (PerkinElmer, AL114M) 75-fold with a detection buffer prepared by diluting 10×Cell-Histone Detection buffer (PerkinElmer, AL009F3) 10-fold with ultrapure water, and diluting Biotinylated anti H3 antibody (PerkinElmer, AL118M) diluted 150 times with the detection buffer) was added at 3 μL/well, and after incubating at room temperature for 60 minutes, then 5× donor beads solution (prepared by diluting Streptavidin Donor beads (PerkinElmer, 6760002) 75 fold with the detection buffer) was added at 3 μL/well, and the mixture was incubated again at room temperature for 60 minutes, and then the emission value was measured using PHERAstar (BMG LABTECH) (excitation=680 nm, […]). […] For cell toxicity, cell viability rate was evaluated by the PrestoBlue method.
# [2] = BA test (oral absorption); assay type: in vivo; settings: plasma; mice or rats; oral vs intravenous administration
# Protocol: Materials and methods for experiments to evaluate oral absorption (1) Experimental animals: mice or rats were used. (2) Rearing condition: mice or rats were allowed free access to solid feed and sterilized tap water. (3) Setting of dosage and grouping: Oral administration and intravenous administration were performed with the predetermined dosage. Grouping was set as below. (Dosage was changed per compound)
# Oral administration 2 to 60 μmol/kg or 1 to 30 mg/kg (n=2 to 3)
# Intravenous administration 1 to 30 μmol/kg or 0.5 to 10 mg/kg (n=2 to 3)
# (4) Preparation of administration solutions: Oral administration was performed as suspension or solution. Intravenous administration was performed after solubilization. (5) Routes of administration: Oral administration was performed mandatory into the stomach by oral sonde. Intravenous administration was performed from caudal vein by syringes with needle. (6) Evaluation items: Blood was collected serially and concentration of a compound of the present invention in plasma was measured by LC/MS/MS. (7) Statistical analysis: About transition of concentration of a compound of the present invention in plasma, the area under the plasma concentration versus time curve (AUC) was calculated by non-linear least-squares method program, and bioavailability (BA) of a compound of the present invention was calculated from dosages and AUCs of the oral administration group and the intravenous administration group. The dilution concentration or the dilution solvent were changed as necessary.
# [3] = biological target: T1, human ether-a-go-go related gene (hERG) channel (Homo sapiens, UniProt Q12809); assay: hERG test (whole cell patch clamp); assay type: cell-based; settings: CHO cells expressing hERG; concentration not given
# T1 construct: expressed in transfected cells; host or cells: CHO cells
# Description: For the purpose of assessing risk of an electrocardiogram QT interval prolongation of the compound of the present invention, effects of the compound of the present invention on delayed rectifier K^+ current (IKr), which plays an important role in the ventricular repolarization process, was studied using CHO cells expressing human ether-a-go-go related gene (hERG) channel.
# After a cell was retained at a membrane potential of −80 mV by whole cell patch clamp method using an automated patch clamp system (QPatch; Sophion Bioscience A/S) and gave a leak potential of −50 mV, IKr induced by depolarization pulse stimulation at +20 mV for 2 seconds, and further, repolarization pulse stimulation at −50 mV for 2 seconds, was recorded. A vehicle, which was the 0.1% dimethyle sulfoxide solution in extracellular solution (NaCl: 145 mmol/L, KCl: 4 mmol/L, CaCl2: 2 mmol/L, MgCl2: 1 mmol/L, glucose:10 mmol/L, HEPES (4-(2-hydroxyethyl)-1-piperazineethanesulfonic acid): 10 mmol/L, pH7.4), or the compound of the present invention had been dissolved at an objective concentration in the extracellular solution was applied to the cell at room temperature for 7 minutes or more. From the recording IKr, an absolute value of the tail peak current was measured based on the current value at the resting membrane potential using analysis software (QPatch assay software; Sophion Bioscience A/S). Further, the % inhibition of tail peak current for the compound of the present invention relative to the tail peak current after application of the vehicle was calculated to assess influence of the compound of the present invention on IKr. The dilution concentration and dilution solvent were changed as necessary.
# T1 sequence (Q12809 whole entry): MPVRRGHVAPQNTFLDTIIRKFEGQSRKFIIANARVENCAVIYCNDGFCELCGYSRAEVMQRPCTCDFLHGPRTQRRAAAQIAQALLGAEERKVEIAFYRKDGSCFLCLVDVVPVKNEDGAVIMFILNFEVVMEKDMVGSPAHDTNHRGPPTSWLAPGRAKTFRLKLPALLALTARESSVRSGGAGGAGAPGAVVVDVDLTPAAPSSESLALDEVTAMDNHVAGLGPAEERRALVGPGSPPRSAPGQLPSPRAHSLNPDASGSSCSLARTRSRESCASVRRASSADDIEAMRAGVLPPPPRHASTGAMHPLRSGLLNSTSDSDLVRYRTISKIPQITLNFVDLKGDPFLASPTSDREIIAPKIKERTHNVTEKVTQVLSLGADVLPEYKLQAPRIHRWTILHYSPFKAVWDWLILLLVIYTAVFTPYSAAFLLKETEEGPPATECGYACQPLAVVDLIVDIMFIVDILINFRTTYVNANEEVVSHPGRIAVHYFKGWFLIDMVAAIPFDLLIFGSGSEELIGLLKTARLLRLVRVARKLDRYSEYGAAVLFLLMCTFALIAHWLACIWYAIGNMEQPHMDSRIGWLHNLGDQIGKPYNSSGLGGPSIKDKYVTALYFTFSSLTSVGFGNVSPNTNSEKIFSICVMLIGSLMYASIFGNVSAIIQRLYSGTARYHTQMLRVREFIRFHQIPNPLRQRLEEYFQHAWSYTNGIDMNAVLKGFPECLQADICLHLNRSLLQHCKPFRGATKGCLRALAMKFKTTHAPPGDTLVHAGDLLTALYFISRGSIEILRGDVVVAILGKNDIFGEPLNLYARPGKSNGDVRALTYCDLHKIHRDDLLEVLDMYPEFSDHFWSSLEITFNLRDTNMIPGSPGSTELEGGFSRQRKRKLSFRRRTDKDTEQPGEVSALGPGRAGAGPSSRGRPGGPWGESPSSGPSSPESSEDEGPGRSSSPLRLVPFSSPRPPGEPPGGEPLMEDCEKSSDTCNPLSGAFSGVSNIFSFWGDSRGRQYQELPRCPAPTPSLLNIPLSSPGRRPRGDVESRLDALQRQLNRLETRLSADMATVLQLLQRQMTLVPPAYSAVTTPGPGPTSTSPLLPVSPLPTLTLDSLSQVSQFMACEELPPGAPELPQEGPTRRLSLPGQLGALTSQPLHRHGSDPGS
Structure (SMILES),inhibition at up to 83.3 µM [1] [%],bioavailability [2] [%],% inhibition of tail peak current (IKr) [3] [%]
Cn1cc(-c2cnc(C(=O)Nc3nc(-c4cccs4)ccc3N)cn2)cn1 [Compound I-017],5,19.6,–
C[C@H](F)COc1cnc(C(=O)Nc2cc(-c3ccc(F)nc3)ccc2N)cn1 (racemic) [Compound I-125],6,32.1,18.6
Cn1cc(-c2cnc(C(=O)Nc3cc(-c4ccc(F)nc4)ccc3N)cn2)cn1 [Compound I-080],7,38.4,9.5
Cn1cc(-c2cnc(C(=O)Nc3nc(-n4cccc4)ccc3N)cn2)cn1 [Compound I-023],8,43.7,–
N#Cc1ccc(C(=O)Nc2cc(-c3ccc(F)nc3)ccc2N)nc1 [Compound I-092],6,22.4,30
CCOc1cnc(C(=O)Nc2cc(-c3ccc(F)nc3)ccc2N)cn1 [Compound I-118],8,22.7,23.3
Cn1cc(-c2ccc(N)c(NC(=O)c3cnc(C4CC4)cn3)c2)cn1 [Compound I-130],–,37.2,3.3
